Reference: patent US20220257646A1, “COMPOSITIONS AND METHODS FOR TREATING SKIN CONDITIONS” (The Regents of the University of California, priority 2019, published 2022)

System: P. acnes strains
Assay: Porphyrin production by P. acnes strains in culture media (iron/cobalt supplemented or depleted)
Type: cell-based, Propionibacterium acnes

[Co] [cobalt]
porphyrin production (depletion of cobalt, P. acnes (FIG. 5)): significantly promoted the porphyrin production

[Fe] [iron]
porphyrin production (acne associated P. acnes strains (FIG. 4)): reduces porphyrin production
chelator effect on porphyrin production (iron added back to iron depleted (chelated) media, P. acnes strains (FIG. 4)): diminishes chelator effect
porphyrin production (iron depletion, acne associated P. acnes strains (FIG. 6)): increases porphyrin production
porphyrin production (iron supplemented in the media, P. acnes strains (FIG. 1)): low porphyrin production
effect of iron depletion on porphyrin production (vitamin B12 supplemented conditions, acne associated P. acnes strains (FIG. 6)): remains
